Measurements published in patent US20140080885A1, “METHODS OF TREATING TRAUMATIC BRAIN INJURY” (University of South Florida (A Florida Non-Profit …, priority 2012, published 2014).

Tested on: CA3 layer of the hippocampus in rats 24 hrs following TBI
Test: Hippocampal damage after TBI (lateral fluid percussion injury), Fluoro-Jade staining of degenerating neurons
Assay type: in vivo, Male Sprague-Dawley rats
Settings: vs vehicle (2.5% DMSO in saline), p<0.0293 ANOVA with Dunnett's post-hoc test
Experimental: FIG. 1 illustrates that Carvedilol treatment reduces hippocampal damage following TBI. Representative images of the CA3 layer of the hippocampus in rats 24 hrs following TBI, vehicle treated (A) and carvedilol treated (B) at 1 and 12 hrs following the insult. […] Images were taken at 4× magnification. Dosing was subcutaneous and the vehicle is 2.5% DMSO in saline.
All animal procedures were conducted in accordance with the NIH Guide for the Care and Use of Laboratory Animals following a protocol approved by the Institutional Animal Care and Use Committee at the University of South Florida. Male Sprague-Dawley rats (Harlan, Indianapolis, Ind.) weighing 250 to 300 g were housed in a climate-controlled room with water and laboratory chow available ad libitum. A total of 33 animals were used in this study.
Induction of Lateral Fluid Percussion Injury (LFPI) Animals were anesthetized using a mixture of ketamine (90 mg/kg)/xylazine (10 mg/kg) (IP). […] Impact pressures were measured using a transducer attached to the point of impact on the fluid percussive device. […]
All quantitation was performed using the NIH Image J software. […] Photomicrographs captured at 200× magnification with an Olympus DP70 camera were used for quantification. […] The channels of the RGB images were split and the green channel was used for quantitation of the FJ staining images. […]

COc1ccccc1OCCNCC(O)COc1cccc2[nH]c3ccccc3c12 (racemic) [Carvedilol, (±)-[3-(9H-carbazol-4-yloxy)-2-hydroxypropyl][2-(2-methoxyphenoxy)ethyl]amine]
hippocampal damage following TBI (subcutaneous dosing at 1 and 12 hrs following the insult): significantly reduces hippocampal damage | hippocampal damage following TBI (subcutaneous dosing at 6 and 12 (hrs) following the insult): significantly reduces hippocampal damage
